Read-outs that look alike come from different tables or passages of the source.
Key:
[1] = In vivo pharmacokinetic evaluation in mouse; set-up: species or system female balb/c nude mice; conditions: female, balb/c nude, plasma, 3 mg/kg IV
[2] = tested on: OVCAR-3 xenografts; experiment: 28 day in vivo efficacy in OVCAR-3 xenografts; set-up: species or system female NOD SCID mice; conditions: 10 and 30 mg/kg QD, 28 days
Protocol: Experiments were performed in female NOD SCID mice (GenPharmatech Co.). Animals were allowed to acclimate for 7 days before the study. The general health of the animals were evaluated by a veterinarian, and complete health checks were performed prior to the study. General procedures for animal care and housing were in accordance with the standard, Commission on Life Sciences, National Research Council, Standard Operating Procedures (SOPs) of Pharmaron, Inc. The mice were kept in laminar flow rooms at constant temperature and humidity with 3-5 mice in each cage. Animals were housed in polycarbonate cages which had dimensions of 300×180×150 mm^3 and in an environmentally monitored, well-ventilated room maintained at a temperature of 23±3° C. and a relative humidity of 40%-70%. Fluorescent lighting provided illumination approximately 12 hours per day. […]
The OVCAR-3 (ATCC) tumor cell lines were maintained in vitro as a monolayer in RPMI 1640 medium supplemented with 20% heat inactivated FBS, at 37° C. in an atmosphere of 5% CO2 in air. The tumor cells were sub-cultured, not exceeding 4-5 passages, and cells growing in an exponential growth phase were harvested and counted for tumor inoculation. […]
The measurement of tumor size was conducted with a caliper and recorded twice per week. […]

[3] = tested on: OVCAR-3 cells; experiment: In vitro anti-proliferative activity assay in cancer cell line OVCAR-3 (CTG); type: cell-based; conditions: 7-day assay, read-out: OVCAR-3 cellular antiproliferation assay IC50
[4] = Caco-2 permeation assay (bidirectional permeability); type: in vitro ADME; conditions: human, Caco-2, pH 7.4
Protocol: Samples were analyzed through LC/MS/MS for estimating the apparent permeability coefficients (Papp) of compounds across Caco-2 cell monolayers. Caco-2 cells (American Type Culture Collection) were incubated and seeded onto HTS Transwell-96 Well Permeable Supports (Corning Corporation) for 14 days using a cell medium consisting of Dulbecco's Modified Eagle's Medium (DMEM) with high glucose and L-glutamine supplemented with 10% FBS, 1× penicillin-streptomycin mixture and 1×non-essential amino acids (NEAA). Cell monolayer integrity was measured using an automated tissue resistance measuring system (World Precision Instruments). Stock solutions of compounds and control compounds in DMSO were diluted with HBSS (10 mM HEPES, pH 7.4) to reach a final concentration of 5 μM with a final concentration of DMSO<0.1%. HBSS was then removed after 30 minutes of preincubation, and 75 μL of test compound was added to the apical compartment of the Transwell insert. The basolateral compartment was filled with 235 μL of HBSS (10 mM HEPES, pH 7.4) containing 2% BSA. Rate of drug transport in the basolateral to apical direction was obtained by adding 235 μL of test compound to the receiver plate wells (basolateral compartment) and filling with 75 μL of HBSS (10 mM HEPES, pH 7.4) containing 2% BSA. Time 0 samples were prepared by transferring 25 μL of […] working solution to wells of the 96-deepwell plate containing 25 μL HBSS (10 mM HEPES and 2% BSA, pH 7.4), followed by the addition 200 μL of cold methanol containing appropriate internal standards (100 nM alprazolam, 200 nM labetalol, 200 nM caffeine and 200 nM diclofenac). After incubating at 37° C. for 2 h, 25 μL samples from donor sides (apical compartment) were transferred to a 96-well plate containing 25 μL HBSS (10 mM HEPES and 2% BSA, pH 7.4). 25 μL samples from receiver sides (basolateral compartment) were removed and transferred to a new plate containing 25 μL HBSS (10 mM HEPES, pH 7.4). 200 μL of cold methanol containing internal standards (100 nM alprazolam, 200 nM labetalol, 200 nM caffeine and 200 nM diclofenac) was added to terminate the reaction. Samples were vortexed for 5 minutes and then centrifuged at 3,220 g for 40 minutes. An aliquot of 100 μL of the supernatant is mixed with 100 μL of ultra-pure water for LC-MS/MS analysis. All incubations are performed in duplicate. Solutions were discarded from the transwell plate. 100 μL Lucifer Yellow solution ([…] in HBSS) was added to each well of transwell insert and 300 μL of HBSS to each well of receiver. After incubating at 37° C. for 30 minutes, 80 μL was aliquoted from each well of apical and basolateral sides to a solid black plate. The plate was then read with Tecan Infinite™ M 200 (Excitation/Emission wavelength […]).
All calculations were carried out using Microsoft Excel. Peak areas were determined from extracted ion chromatograms. The leakage of Lucifer Yellow, in unit of percentage (%), can be calculated using the following equation: […]
LY leakage of <1% is acceptable to indicate the well-qualified Caco-2 monolayers. The apparent permeability coefficient (Papp), in units of centimeter per second, can be calculated for Caco-2 drug transport assays using the following equation: […]
Where VA is the volume (in mL) in the receiver well (0.235 mL for Ap→Bl flux and 0.075 mL for Bl→Ap flux), Area is the surface area of the membrane (0.143 cm^2 for HTS Transwell-96 Well Permeable Supports), and time is the total transport time in seconds. The efflux ratio can be determined using the following equation: […]
Where Papp (B-A) indicates the apparent permeability coefficient in basolateral to apical direction, and Papp (A-B) indicates the apparent permeability coefficient in apical to basolateral direction.
The recovery can be determined using the following equation: […]

[5] = target: T1, KIF18A (Homo sapiens, UniProt Q8NI77); experiment: KIF18A Biochemical Assay (ATPase, ADP-Glo)
T1 construct: A solution of KIF18A (0.4 nM, 5 μL/well; 1-367) in assay buffer
T1 sequence (Q8NI77 1-367): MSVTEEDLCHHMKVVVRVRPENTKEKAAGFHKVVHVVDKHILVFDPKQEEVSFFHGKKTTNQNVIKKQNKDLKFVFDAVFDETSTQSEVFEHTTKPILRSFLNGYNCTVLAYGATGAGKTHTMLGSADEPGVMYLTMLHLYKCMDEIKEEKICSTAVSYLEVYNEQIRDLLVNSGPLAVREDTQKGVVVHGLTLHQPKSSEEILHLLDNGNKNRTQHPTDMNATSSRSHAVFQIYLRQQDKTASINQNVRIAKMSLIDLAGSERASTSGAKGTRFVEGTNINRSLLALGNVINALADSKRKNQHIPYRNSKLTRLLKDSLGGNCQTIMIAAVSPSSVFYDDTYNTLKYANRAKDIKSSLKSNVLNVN

IC50 ([3]; Homo sapiens, OVCAR-3, 168 h) [nM]	efflux ratio at 2 h, 5 μM [4]	IC50 [5] [nM]	SMILES	clearance [1] [mL/min/kg]	other results
–	–	–	Cc1cc(NC(=O)c2ccc(NS(=O)(=O)CCO)cc2N2CC[Si](C)(C)CC2)nc(C2CCC(F)(F)CC2)n1 [Example 1, N-(2-(4,4-difluorocyclohexyl)-6-methylpyrimidin-4-yl)-2-(4,4-dimethyl-1,4-azasilinan-1-yl)-4-((2-hydroxyethyl)sulfonamido)benzamide]	3.6	–
–	–	–	Cc1cc(NC(=O)c2ccc(NS(=O)(=O)CCO)cc2N2CC[C@@]3(C(F)F)C[C@H]3C2)nc(N2CCC(F)(F)CC2)n1 (single isomer, unassigned) [Example 29b]	3.3	Tumor growth [2]: significant reduction in tumor growth in a dose-dependent manner
100 to 500	< 10	< 100	Cc1cc(NC(=O)c2ccc(NS(=O)(=O)CCO)cc2N2CC[C@]3(C(F)(F)F)C[C@@H]3C2)nc(N2CCC(F)(F)CC2)n1 [Example 86]	–	–
< 100	–	< 100	Cc1cc(NC(=O)c2ccc(NS(=O)(=O)CCO)cc2N2CC[C@@]3(C)C[C@H]3C2)nc(C2CCC(F)(F)CC2)n1 [Example 63]	–	–
–	–	–	Cc1cc(NC(=O)c2ccc(NS(=O)(=O)CCO)cc2N2CC[C@@]3(F)CC[C@H]3C2)nc(N2CCC(F)(F)CC2)n1 (single isomer, unassigned) [Example 50b]	0.74	–
–	–	–	Cc1cc(NC(=O)c2ccc(NS(=O)(=O)CCO)cc2N2CC[Si](C)(C)CC2)nc(N2CCC(F)(F)CC2)n1 [Example 9, N-[2-(4,4-difluoropiperidin-1-yl)-6-methylpyrimidin-4-yl]-2-(4,4-dimethyl-1,4-azasilinan-1-yl)-4-(2-hydroxyethanesulfonamido)benzamide]	1.7	–
100 to 500	–	< 100	Cc1cc(NC(=O)c2ccc(NS(=O)(=O)CCO)cc2N2CC[C@@]3(C(F)(F)F)C[C@H]3C2)nc(N2CCC(F)(F)CC2)n1 [Example 85]	–	–
–	< 10	–	O=C(Nc1ccnc(N2CCC(F)(F)CC2)n1)c1c(F)cc(NS(=O)(=O)CCO)cc1N1CC[C@@]2(C(F)F)C[C@H]2C1 [Example 84]	–	IC50 [3]: 100 to 500 nM
< 100	< 10	< 100	Cc1cc(NC(=O)c2ccc(NS(=O)(=O)CCO)cc2N2CC[C@]3(C)C[C@@H]3C2)nc(C2CCC(F)(F)CC2)n1 [Example 62]	–	–
100 to 500	< 10	< 100	Cc1cc(NC(=O)c2ccc(NS(=O)(=O)N(C)CCO)cc2N2CC[Si](C)(C)CC2)nc(C2CCC(F)(F)CC2)n1 [Example 134]	–	–
100 to 500	< 10	100 to 500	Cc1cc(NC(=O)c2ccc(NS(=O)(=O)NCCO)cc2N2CC[Si](C)(C)CC2)nc(C2CCC(F)(F)CC2)n1 [Example 117]	–	–
–	–	< 100	Cc1cc(NC(=O)c2c(F)cc(NS(=O)(=O)CCO)cc2N2CC[C@@]3(C)C[C@H]3C2)nc(N2CCC(F)(F)CC2)n1 (single isomer, unassigned) [Example 31b]	–	–

SMILES	IC50 ([3]; Homo sapiens, OVCAR-3, 168 h) [nM]	efflux ratio at 2 h, 5 μM [4]	IC50 [5] [nM]	clearance [1] [mL/min/kg]	other results
C[Si]1(C)CCN(c2cc(NS(=O)(=O)CCO)ccc2C(=O)Nc2ccnc(OCCC(F)(F)F)n2)CC1 [Example 10]	–	< 10	–	–	–
